From ChEMBL document CHEMBL5154777, “Alternative approaches utilizing click chemistry to develop next-generation analogs of solithromycin” (2022)
In brackets after ≈: the same amount, converted by molar mass.

Columns and labels:
Type in all cases: functional
[1] = tested on: Staphylococcus aureus; test: Antibacterial activity against methicillin-resistant Staphylococcus aureus ATCC 43300
[2] = tested on: Klebsiella pneumoniae; test: Antibacterial activity against Klebsiella pneumoniae BAA 2146
[3] = tested on: Acinetobacter baumannii; test: Antibacterial activity against Acinetobacter baumannii 2208 ATCC 19606
[4] = tested on: Enterococcus faecium; test: Antibacterial activity against Enterococcus faecium NCTC 7171
[5] = tested on: Pseudomonas aeruginosa; test: Antibacterial activity against Pseudomonas aeruginosa HER 1018
[6] = tested on: Enterobacter cloacae; test: Antibacterial activity against Enterobacter cloacae ATCC 13047
[7] = tested on: Escherichia coli; test: Antibacterial activity against Escherichia coli MG1655
[8] = tested on: Staphylococcus aureus; test: Antibacterial activity against Staphylococcus aureus UCN17
[9] = tested on: Staphylococcus aureus; test: Antibacterial activity against Staphylococcus aureus ATCC 29213
[10] = tested on: Staphylococcus aureus; test: Antibacterial activity against Staphylococcus aureus UCN18
[11] = tested on: Escherichia coli; test: Antibacterial activity against Escherichia coli SQ171
[12] = tested on: Escherichia coli; test: Antibacterial activity against Escherichia coli DK3535
[13] = tested on: Staphylococcus aureus; test: Antibacterial activity against Staphylococcus aureus UCN14
[14] = tested on: Escherichia coli; test: Antibacterial activity against Escherichia coli SQ171 2058G
[15] = tested on: Escherichia coli; test: Antibacterial activity against Escherichia coli DK2058G
[16] = tested on: Escherichia coli; test: Antibacterial activity against Escherichia coli DK

Row | SMILES | MIC [1] [µM] | MIC [2] [µM] | MIC [3] [µM] | MIC [4] [µM] | MIC [5] [µM] | MIC [6] [µM] | MIC [7] [µM] | MIC [8] [µM] | MIC [9] [µM] | MIC [10] [µM] | MIC [11] [µM] | MIC [12] [µM] | MIC [13] [µM] | MIC [14] [µM] | MIC [15] [µM] | MIC [16] [µM]
1 | [N-]=[N+]=NC[C@@H]1CN(c2ccc(N3CCOCC3)c(F)c2)C(=O)O1 | > 200 | > 200 | > 200 | > 200 | > 200 | > 200 | > 200 |  |  |  |  |  |  |  |  | 
2 | [N-]=[N+]=NC[C@H]1CN(c2ccc(N3CCOCC3)c(F)c2)C(=O)O1 | > 200 | > 200 | > 200 | > 200 | > 200 | > 200 | > 200 |  |  |  |  |  |  |  |  | 
3 | CC[C@H]1OC(=O)[C@@](C)(F)C(=O)[C@H](C)[C@@H](O[C@@H]2O[C@H](C)C[C@H](N(C)CCc3cn(C[C@@H]4CN(c5ccc(N6CCOCC6)c(F)c5)C(=O)O4)nn3)[C@H]2O)[C@](C)(OC)C[C@@H](C)C(=O)[C@H](C)C2N(CCCCn3cc(-c4cccc(N)c4)nn3)C(=O)O[C@@]21C (single isomer, unassigned) | 200 (≈ 241 µg/mL) | > 200 | > 200 | > 200 | > 200 | > 200 | > 200 |  |  |  |  |  |  |  |  | 
4 | CC[C@H]1OC(=O)[C@@](C)(F)C(=O)[C@H](C)[C@@H](O[C@@H]2O[C@H](C)C[C@H](N(C)C)[C@H]2O)[C@](C)(OC)C[C@@H](C)C(=O)[C@H](C)C2N(C/C=C/Cn3cc(-c4cccs4)nn3)C(=O)O[C@@]21C (single isomer, unassigned) |  |  |  |  |  |  |  | 9.6 (≈ 8.01 µg/mL) | < 0.075 | 9.6 (≈ 8.01 µg/mL) | > 38 | 2.4 (≈ 2 µg/mL) | 19 (≈ 15.8 µg/mL) | > 38 | 2.4 (≈ 2 µg/mL) | 2.4 (≈ 2 µg/mL)
5 | CC[C@H]1OC(=O)[C@@](C)(F)C(=O)[C@H](C)[C@@H](O[C@@H]2O[C@H](C)C[C@H](N(C)CCCn3cc(-c4cccnc4)nn3)[C@H]2O)[C@](C)(OC)C[C@@H](C)C(=O)[C@H](C)C2N(CCCCn3cc(-c4cccc(N)c4)nn3)C(=O)O[C@@]21C (single isomer, unassigned) |  |  |  |  |  |  |  | > 130 | 3.9 (≈ 3.97 µg/mL) | > 130 | > 31 | 7.9 (≈ 8.04 µg/mL) | > 130 | > 31 | 7.9 (≈ 8.04 µg/mL) | 3.9 (≈ 3.97 µg/mL)
6 | CC[C@H]1OC(=O)[C@@](C)(F)C(=O)[C@H](C)[C@@H](O[C@@H]2O[C@H](C)C[C@H](N(C)CCCCn3cc(-c4cccnc4)nn3)[C@H]2O)[C@](C)(OC)C[C@@H](C)C(=O)[C@H](C)C2N(CCCCn3cc(-c4cccc(N)c4)nn3)C(=O)O[C@@]21C (single isomer, unassigned) |  |  |  |  |  |  |  | > 120 | 1.9 (≈ 1.96 µg/mL) | > 120 | > 31 | 7.8 (≈ 8.04 µg/mL) | > 120 | > 31 | 7.8 (≈ 8.04 µg/mL) | 7.8 (≈ 8.04 µg/mL)
7 | CC[C@H]1OC(=O)[C@@](C)(F)C(=O)[C@H](C)[C@@H](O[C@@H]2O[C@H](C)C[C@H](N(C)CCCCn3cc(-c4cccc(N)c4)nn3)[C@H]2O)[C@](C)(OC)C[C@@H](C)C(=O)[C@H](C)C2N(CCCCn3cc(-c4cccc(N)c4)nn3)C(=O)O[C@@]21C (single isomer, unassigned) |  |  |  |  |  |  |  | > 120 | 0.96 (≈ 1 µg/mL) | > 120 | > 31 | 3.8 (≈ 3.97 µg/mL) | > 120 | > 31 | > 31 | 7.7 (≈ 8.05 µg/mL)
8 | CC[C@H]1OC(=O)[C@@](C)(F)C(=O)[C@H](C)[C@@H](O[C@@H]2O[C@H](C)C[C@H](N(C)CCn3cc(-c4cccc(N)c4)nn3)[C@H]2O)[C@](C)(OC)C[C@@H](C)C(=O)[C@H](C)C2N(CCCCn3cc(-c4cccc(N)c4)nn3)C(=O)O[C@@]21C (single isomer, unassigned) |  |  |  |  |  |  |  | > 130 | 0.49 (≈ 0.498 µg/mL) | > 130 | > 31 | > 31 | > 130 | > 31 | > 31 | > 31
9 | CC[C@H]1OC(=O)[C@@](C)(F)C(=O)[C@H](C)[C@@H](O[C@@H]2O[C@H](C)C[C@H](N(C)C)[C@H]2O)[C@](C)(OC)C[C@@H](C)C(=O)[C@H](C)C2N(C/C=C/Cn3cc(-c4cccc(O)c4)nn3)C(=O)O[C@@]21C (single isomer, unassigned) |  |  |  |  |  |  |  | 9.5 (≈ 8.02 µg/mL) | < 0.074 | 4.7 (≈ 3.97 µg/mL) | > 38 | 2.4 (≈ 2.03 µg/mL) | 9.5 (≈ 8.02 µg/mL) | > 38 | 2.4 (≈ 2.03 µg/mL) | 2.4 (≈ 2.03 µg/mL)
10 | CC[C@H]1OC(=O)[C@@](C)(F)C(=O)[C@H](C)[C@@H](O[C@@H]2O[C@H](C)C[C@H](N(C)CCc3cn(C[C@H]4CN(c5ccc(N6CCOCC6)c(F)c5)C(=O)O4)nn3)[C@H]2O)[C@](C)(OC)C[C@@H](C)C(=O)[C@H](C)C2N(CCCCn3cc(-c4cccc(N)c4)nn3)C(=O)O[C@@]21C (single isomer, unassigned) | 0.8 (≈ 0.964 µg/mL) | > 200 | > 200 | 0.2 (≈ 0.241 µg/mL) | > 200 | > 200 | > 200 |  |  |  |  |  |  |  |  | 
11 | CC[C@H]1OC(=O)[C@@](C)(F)C(=O)[C@H](C)[C@@H](O[C@@H]2O[C@H](C)C[C@H](N(C)CCn3cc(-c4cccnc4)nn3)[C@H]2O)[C@](C)(OC)C[C@@H](C)C(=O)[C@H](C)C2N(CCCCn3cc(-c4cccc(N)c4)nn3)C(=O)O[C@@]21C (single isomer, unassigned) |  |  |  |  |  |  |  | > 130 | 0.25 (≈ 0.251 µg/mL) | > 130 | > 32 | > 32 | > 130 | > 32 | > 32 | > 32
12 | CC[C@H]1OC(=O)[C@@](C)(F)C(=O)[C@H](C)[C@@H](O[C@@H]2O[C@H](C)C[C@H](N(C)C)[C@H]2O)[C@](C)(OC)C[C@@H](C)C(=O)[C@H](C)C2N(C/C=C/Cn3cc(-c4cccc(N)c4)nn3)C(=O)O[C@@]21C (single isomer, unassigned) |  |  |  |  |  |  |  | 0.15 (≈ 0.126 µg/mL) | < 0.074 | < 0.074 | > 38 | 2 (≈ 1.69 µg/mL) | 2.4 (≈ 2.02 µg/mL) | > 38 | 2.4 (≈ 2.02 µg/mL) | 2.4 (≈ 2.02 µg/mL)
13 | C=CCN(C)[C@H]1C[C@@H](C)O[C@@H](O[C@@H]2[C@@H](C)C(=O)[C@](C)(F)C(=O)O[C@H](CC)[C@@]3(C)OC(=O)N(CCCCN=[N+]=[N-])C3[C@@H](C)C(=O)[C@H](C)C[C@@]2(C)OC)[C@@H]1O (single isomer, unassigned) |  |  |  |  |  |  |  | > 170 | 0.66 (≈ 0.498 µg/mL) | > 170 | > 42 | 11 (≈ 8.29 µg/mL) | > 170 | > 42 | 5.3 (≈ 4 µg/mL) | 0.66 (≈ 0.498 µg/mL)
14 | CC[C@H]1OC(=O)[C@@](C)(F)C(=O)[C@H](C)[C@@H](O[C@@H]2O[C@H](C)C[C@H](N(C)CCCn3cc(-c4cccc(N)c4)nn3)[C@H]2O)[C@](C)(OC)C[C@@H](C)C(=O)[C@H](C)C2N(CCCCn3cc(-c4cccc(N)c4)nn3)C(=O)O[C@@]21C (single isomer, unassigned) |  |  |  |  |  |  |  | > 120 | 0.97 (≈ 1 µg/mL) | > 120 | > 31 | 3.9 (≈ 4.02 µg/mL) | > 120 | > 31 | 16 (≈ 16.5 µg/mL) | 3.9 (≈ 4.02 µg/mL)
15 | C=CCN(C)[C@H]1C[C@@H](C)O[C@@H](O[C@@H]2[C@@H](C)C(=O)[C@](C)(F)C(=O)O[C@H](CC)[C@@]3(C)OC(=O)N(CCCCn4cc(-c5cccc(N)c5)nn4)C3[C@@H](C)C(=O)[C@H](C)C[C@@]2(C)OC)[C@@H]1O (single isomer, unassigned) |  |  |  |  |  |  |  | 150 (≈ 131 µg/mL) | 1.1 (≈ 0.958 µg/mL) | 150 (≈ 131 µg/mL) | > 37 | 4.6 (≈ 4.01 µg/mL) | > 150 | > 37 | 2.3 (≈ 2 µg/mL) | 2.3 (≈ 2 µg/mL)
